Measurements: ChEMBL document CHEMBL1201862, “PubChem BioAssay data set” (2004)
The source made the active and inactive calls.

Experiments:
Insulin-degrading enzyme [1] = target: T1, Insulin-degrading enzyme (Homo sapiens, UniProt P14735); assay: activators of recombinant IDE enzyme, dose response, counter-screen for IDE activator project, biochemical, fluorescence polarization (AID 588681)
HEK293 [2] = assay: optical interference in Abeta FP readout, dose response, artefact control for IDE activator project, biochemical, fluorescence polarization (AID 588442); type: functional, cell-based; details: Homo sapiens
Insulin-degrading enzyme [3] = target: T1, Insulin-degrading enzyme; assay: activators of endogenous IDE in HEK cells, dose response, cell-based, fluorescence polarization (AID 588439); type: functional
HEK293 [4] = assay: HEK cell cytotoxicity by LDH release, dose response, cytotoxicity control for IDE activator project, fluorescence, HEK cells (AID 588440); type: functional, cell-based; details: Homo sapiens;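 also: cytotoxicity by LDH release measuring loss of membrane integrity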
[5] = target: T2, Calpain-2 catalytic subunit (Sus scrofa, UniProt P43367); assay: pig calpain II inhibitor potency, dose response, biochemical, fluorogenic peptide substrate (AID 1420); type: functional
T2 sequence (P43367 whole entry): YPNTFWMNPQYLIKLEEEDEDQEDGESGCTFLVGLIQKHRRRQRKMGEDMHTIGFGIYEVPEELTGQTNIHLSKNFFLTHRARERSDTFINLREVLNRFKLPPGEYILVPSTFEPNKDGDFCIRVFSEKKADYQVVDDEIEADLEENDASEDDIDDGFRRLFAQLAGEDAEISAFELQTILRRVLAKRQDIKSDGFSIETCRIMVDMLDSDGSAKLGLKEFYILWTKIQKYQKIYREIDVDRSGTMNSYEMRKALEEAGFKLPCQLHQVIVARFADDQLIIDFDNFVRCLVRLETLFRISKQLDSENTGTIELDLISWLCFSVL

[6] = (§1) Counterscreen for antagonists of the orexin 1 receptor (OX1R; HCRTR1): Fluorescence-based cell-based high throughput dose response assay to identify antagonists of the parental CHO cell line. [Related pubchem assays (depositor defined):AID434989, AID435008, AID463079, AID485270, AID492963, AID492964, AID492965, AID493232, AID504699, AID504701]; type: functional
CHO-K1 = assay: as §1, with “Homogeneous time resolved fluorescence (HTRF)-based” for “Fluorescence-based”, “cell-based” for “cell-based high throughput”, “CHO-K1” for “CHO”; type: functional; details: Cricetulus griseus;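 also: potency for inhibition of ATP-stimulated IP1 production as antagonists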
[7] = target: T3, Orexin/Hypocretin receptor type 1 (Homo sapiens, UniProt O43613); assay: Homogeneous Time Resolved Fluorescence (HTRF)-based cell-based high throughput dose response assay for antagonists of the orexin 1 receptor (OX1R; HCRTR1). [Related pubchem assays (depositor defined):AID434989, AID435008, AID463079, AID485270, AID492963, AID492964, AID492965, AID493232, AID504717, AID504718]; type: functional
[8] = target: T3, Orexin/Hypocretin receptor type 1; assay: Fluorescence-based cell-based high throughput dose response assay for antagonists of the orexin 1 receptor (OX1R; HCRTR1). [Related pubchem assays (depositor defined):AID434989, AID435008, AID463079, AID485270, AID492963, AID492964, AID492965, AID493232, AID504717, AID504718]; type: functional
Orexin receptor type 2 [9] = target: T4, Orexin receptor type 2 (Homo sapiens, UniProt O43614); assay: Counterscreen assay for antagonists of the orexin 1 receptor (OX1R; HCRTR1): Homogeneous Time Resolved Fluorescence (HTRF)-based cell-based dose response assay for antagonists of the orexin 2 receptor (OX2R; HCRTR2), run by assay provider.; type: functional
Orexin receptor type 2 [10] = target: T4, Orexin receptor type 2; assay: Counterscreen assay for antagonists of the orexin 1 receptor (OX1R; HCRTR1): Fluorescence-based cell-based dose response assay for antagonists of the orexin 2 receptor (OX2R; HCRTR2), run by assay provider.; type: functional
CAAX prenyl protease 2 = target: T5, CAAX prenyl protease 2 (Saccharomyces cerevisiae S288c, UniProt Q03530); assay: yeast Rce1 CaaX protease inhibitors, dose response, biochemical, plate reader, dry powder retest (AID 588851)
T5 sequence (Q03530 whole entry): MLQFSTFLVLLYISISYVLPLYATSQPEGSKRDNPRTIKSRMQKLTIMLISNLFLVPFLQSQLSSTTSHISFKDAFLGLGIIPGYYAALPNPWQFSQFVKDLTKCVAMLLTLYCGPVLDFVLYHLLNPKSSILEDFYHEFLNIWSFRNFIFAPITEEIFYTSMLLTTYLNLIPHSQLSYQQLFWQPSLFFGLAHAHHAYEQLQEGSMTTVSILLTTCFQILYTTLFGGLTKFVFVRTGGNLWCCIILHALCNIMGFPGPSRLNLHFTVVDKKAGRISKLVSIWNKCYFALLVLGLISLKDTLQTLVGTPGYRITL

[11] = cytotoxicity toward NIH3T3 fibroblasts, dose response, counter-screen, cell-based, ATP luminescence, mouse fibroblasts (AID 2010); type: functional;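 also: cells exposed to compound for about 90 hours before reading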
[12] = inhibitors of intracellular T. cruzi replication, confirmation, NIH3T3 host cells, beta-gal luminescence (AID 2044); type: functional, cell-based;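 also: intracellular parasites grown in NIH/3T3 mouse fibroblasts as host cells; luminescent beta-galactosidase reporter signal from transgenic T. cruzi replicating inside host cells; inhibitors lower the luminescence signal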
[13] = target: T6, Heat shock factor protein 1 (Mus musculus, UniProt P38532); assay: HSF1 potentiators in luciferase reporter cells, confirmation, cell-based, NIH3T3, luminescence, dose retest (AID 435004); type: functional;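 also: stress induced by proteasome inhibitor MG132 added 30 min after compound; luciferase reporter driven by HSF1 response element in NIH3T3 cells; actives raise luminescence as potentiators of the MG132 stress response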
T6 sequence (P38532 whole entry): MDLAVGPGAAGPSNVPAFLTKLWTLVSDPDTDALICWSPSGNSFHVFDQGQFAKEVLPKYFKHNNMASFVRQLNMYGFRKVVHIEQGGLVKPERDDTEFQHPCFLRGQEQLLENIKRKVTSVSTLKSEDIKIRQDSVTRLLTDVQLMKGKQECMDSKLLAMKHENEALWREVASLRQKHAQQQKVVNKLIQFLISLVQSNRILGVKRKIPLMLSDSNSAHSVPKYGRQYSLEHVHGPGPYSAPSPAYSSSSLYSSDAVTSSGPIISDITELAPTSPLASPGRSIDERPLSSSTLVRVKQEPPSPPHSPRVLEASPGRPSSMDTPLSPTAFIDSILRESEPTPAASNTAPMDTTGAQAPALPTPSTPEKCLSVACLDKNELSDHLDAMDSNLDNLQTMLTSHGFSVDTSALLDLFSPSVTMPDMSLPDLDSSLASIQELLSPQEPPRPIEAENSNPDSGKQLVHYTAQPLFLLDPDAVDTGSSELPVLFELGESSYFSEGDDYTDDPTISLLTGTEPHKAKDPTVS

[14] = target: T7, Sentrin-specific protease 7 (Homo sapiens, UniProt Q9BQF6); assay: SENP7 protease inhibitors, SAR follow-up, biochemical, luminescence (AID 504497); type: functional
T7 sequence (Q9BQF6 whole entry): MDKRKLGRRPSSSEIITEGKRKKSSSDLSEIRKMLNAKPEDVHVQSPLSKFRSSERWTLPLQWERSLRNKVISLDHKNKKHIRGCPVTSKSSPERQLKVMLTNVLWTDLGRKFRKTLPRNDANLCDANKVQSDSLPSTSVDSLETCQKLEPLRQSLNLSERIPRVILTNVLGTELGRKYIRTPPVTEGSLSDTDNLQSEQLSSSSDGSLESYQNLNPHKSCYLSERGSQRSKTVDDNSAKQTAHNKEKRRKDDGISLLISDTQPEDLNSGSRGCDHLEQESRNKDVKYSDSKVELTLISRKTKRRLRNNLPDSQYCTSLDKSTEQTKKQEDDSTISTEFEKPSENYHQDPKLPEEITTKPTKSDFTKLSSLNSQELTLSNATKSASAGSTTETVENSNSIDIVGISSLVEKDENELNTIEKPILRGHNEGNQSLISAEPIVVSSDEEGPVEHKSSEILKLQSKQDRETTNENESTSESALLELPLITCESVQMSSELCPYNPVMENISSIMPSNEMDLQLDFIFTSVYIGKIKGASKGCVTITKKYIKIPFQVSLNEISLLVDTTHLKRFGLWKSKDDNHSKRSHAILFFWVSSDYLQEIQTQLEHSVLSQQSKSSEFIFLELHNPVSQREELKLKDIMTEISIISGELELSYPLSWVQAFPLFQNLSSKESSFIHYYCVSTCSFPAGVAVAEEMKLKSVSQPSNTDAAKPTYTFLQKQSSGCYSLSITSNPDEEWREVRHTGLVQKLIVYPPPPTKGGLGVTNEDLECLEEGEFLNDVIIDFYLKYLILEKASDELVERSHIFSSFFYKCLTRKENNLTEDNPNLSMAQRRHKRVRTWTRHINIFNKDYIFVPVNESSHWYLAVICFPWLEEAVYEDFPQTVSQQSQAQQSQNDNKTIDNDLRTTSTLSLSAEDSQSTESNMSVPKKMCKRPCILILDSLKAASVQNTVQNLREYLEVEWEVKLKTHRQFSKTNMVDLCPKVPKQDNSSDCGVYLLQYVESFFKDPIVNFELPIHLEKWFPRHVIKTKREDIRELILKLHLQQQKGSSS

[15] = target: T8, Sentrin-specific protease 8 (Homo sapiens, UniProt Q96LD8); assay: SENP8 protease inhibitors, SAR follow-up, biochemical, luminescence (AID 504501); type: functional
T8 sequence (Q96LD8 whole entry): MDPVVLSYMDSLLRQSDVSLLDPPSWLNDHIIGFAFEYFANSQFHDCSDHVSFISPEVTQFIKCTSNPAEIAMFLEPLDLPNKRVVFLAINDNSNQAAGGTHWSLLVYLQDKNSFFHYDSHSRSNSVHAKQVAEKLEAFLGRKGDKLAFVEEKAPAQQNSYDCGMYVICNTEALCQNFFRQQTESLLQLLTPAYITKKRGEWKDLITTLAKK

Caspase-3 = target: T9, Caspase-3 (Homo sapiens, UniProt P42574); assay: SAR Analysis of small molecule inhibitors of Sentrin-specific proteases (SENPs) using a Caspase-3 Selectivity assay. [Related pubchem assays (depositor defined):AID2540, AID2599, AID434973, AID489001]; type: functional
T9 sequence (P42574 whole entry): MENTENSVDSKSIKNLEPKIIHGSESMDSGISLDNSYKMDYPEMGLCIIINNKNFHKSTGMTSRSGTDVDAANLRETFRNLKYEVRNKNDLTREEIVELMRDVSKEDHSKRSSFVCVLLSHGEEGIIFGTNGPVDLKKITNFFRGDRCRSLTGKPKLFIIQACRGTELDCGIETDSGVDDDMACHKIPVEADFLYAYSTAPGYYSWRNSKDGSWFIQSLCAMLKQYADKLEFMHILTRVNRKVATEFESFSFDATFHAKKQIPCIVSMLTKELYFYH

[16] = target: T10, Sentrin-specific protease 6 (Homo sapiens, UniProt Q9GZR1); assay: SAR Analysis of small molecule inhibitors of Sentrin-specific protease 6 (SENP6) using a Luminescent assay. [Related pubchem assays (depositor defined):AID2582, AID2599]; type: functional
T10 sequence (Q9GZR1 whole entry): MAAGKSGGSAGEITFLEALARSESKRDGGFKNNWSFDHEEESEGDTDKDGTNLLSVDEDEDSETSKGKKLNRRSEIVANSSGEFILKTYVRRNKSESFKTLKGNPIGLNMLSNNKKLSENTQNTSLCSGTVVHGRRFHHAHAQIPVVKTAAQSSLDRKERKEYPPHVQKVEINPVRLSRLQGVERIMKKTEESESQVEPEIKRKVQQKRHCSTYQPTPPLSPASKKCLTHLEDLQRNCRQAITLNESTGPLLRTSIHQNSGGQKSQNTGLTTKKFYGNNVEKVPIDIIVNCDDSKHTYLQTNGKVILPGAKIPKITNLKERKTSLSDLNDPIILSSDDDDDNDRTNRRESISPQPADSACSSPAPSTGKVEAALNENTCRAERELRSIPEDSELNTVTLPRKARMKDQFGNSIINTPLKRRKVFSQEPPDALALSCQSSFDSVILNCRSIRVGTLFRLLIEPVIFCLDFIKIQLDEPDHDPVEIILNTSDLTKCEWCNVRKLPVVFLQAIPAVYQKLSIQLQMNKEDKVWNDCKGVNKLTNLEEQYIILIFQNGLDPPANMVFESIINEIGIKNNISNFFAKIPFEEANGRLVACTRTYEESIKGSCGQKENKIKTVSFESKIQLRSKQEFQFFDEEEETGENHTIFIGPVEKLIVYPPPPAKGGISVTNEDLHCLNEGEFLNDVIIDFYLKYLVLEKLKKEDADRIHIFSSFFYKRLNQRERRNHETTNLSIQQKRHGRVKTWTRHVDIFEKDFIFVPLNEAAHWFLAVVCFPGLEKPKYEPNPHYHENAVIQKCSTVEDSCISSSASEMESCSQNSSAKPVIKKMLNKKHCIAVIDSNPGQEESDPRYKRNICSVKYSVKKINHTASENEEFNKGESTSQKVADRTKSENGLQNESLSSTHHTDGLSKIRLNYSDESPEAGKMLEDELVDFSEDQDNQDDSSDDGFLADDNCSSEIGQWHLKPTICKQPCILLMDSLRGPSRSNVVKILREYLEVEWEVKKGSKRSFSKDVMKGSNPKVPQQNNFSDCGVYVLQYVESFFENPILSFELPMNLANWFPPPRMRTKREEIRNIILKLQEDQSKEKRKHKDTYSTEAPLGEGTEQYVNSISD

T1 sequence (P14735 whole entry): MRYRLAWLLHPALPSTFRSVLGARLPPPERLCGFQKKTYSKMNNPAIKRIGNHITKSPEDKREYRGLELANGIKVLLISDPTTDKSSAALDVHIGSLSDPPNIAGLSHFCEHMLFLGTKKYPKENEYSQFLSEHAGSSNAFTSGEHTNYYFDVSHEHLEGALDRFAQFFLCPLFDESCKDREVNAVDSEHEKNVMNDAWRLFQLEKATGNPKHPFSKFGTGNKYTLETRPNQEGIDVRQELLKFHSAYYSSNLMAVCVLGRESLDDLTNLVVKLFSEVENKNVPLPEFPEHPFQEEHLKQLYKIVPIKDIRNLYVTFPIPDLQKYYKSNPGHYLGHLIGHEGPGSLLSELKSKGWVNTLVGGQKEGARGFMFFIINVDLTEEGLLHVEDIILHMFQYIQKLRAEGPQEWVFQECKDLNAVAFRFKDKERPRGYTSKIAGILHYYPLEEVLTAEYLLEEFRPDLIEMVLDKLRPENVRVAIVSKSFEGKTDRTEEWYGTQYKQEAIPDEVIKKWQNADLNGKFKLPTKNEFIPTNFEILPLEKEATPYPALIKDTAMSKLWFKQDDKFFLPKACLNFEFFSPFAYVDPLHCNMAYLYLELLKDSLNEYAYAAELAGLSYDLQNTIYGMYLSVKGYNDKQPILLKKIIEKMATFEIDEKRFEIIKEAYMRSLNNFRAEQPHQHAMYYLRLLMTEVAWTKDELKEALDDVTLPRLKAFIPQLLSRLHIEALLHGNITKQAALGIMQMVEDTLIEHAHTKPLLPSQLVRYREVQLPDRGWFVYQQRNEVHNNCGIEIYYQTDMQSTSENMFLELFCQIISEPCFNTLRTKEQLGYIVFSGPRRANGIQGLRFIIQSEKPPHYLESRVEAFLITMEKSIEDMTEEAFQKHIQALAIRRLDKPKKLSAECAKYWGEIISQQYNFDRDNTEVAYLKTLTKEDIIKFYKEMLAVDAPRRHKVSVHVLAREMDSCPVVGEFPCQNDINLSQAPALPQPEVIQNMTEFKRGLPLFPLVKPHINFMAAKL
T4 sequence (O43614 whole entry): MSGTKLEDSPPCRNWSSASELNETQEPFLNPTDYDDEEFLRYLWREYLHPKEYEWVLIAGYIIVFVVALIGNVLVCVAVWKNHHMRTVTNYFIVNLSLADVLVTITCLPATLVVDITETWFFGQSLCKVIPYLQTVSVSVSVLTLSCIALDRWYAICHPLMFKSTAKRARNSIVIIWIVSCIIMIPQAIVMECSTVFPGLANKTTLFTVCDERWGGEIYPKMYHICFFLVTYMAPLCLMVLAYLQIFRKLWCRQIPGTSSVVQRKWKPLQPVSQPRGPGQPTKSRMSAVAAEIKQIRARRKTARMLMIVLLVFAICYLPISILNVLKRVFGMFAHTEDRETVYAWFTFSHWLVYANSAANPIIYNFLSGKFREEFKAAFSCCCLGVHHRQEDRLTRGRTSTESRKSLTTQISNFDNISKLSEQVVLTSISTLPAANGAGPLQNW
T3 sequence (O43613 whole entry): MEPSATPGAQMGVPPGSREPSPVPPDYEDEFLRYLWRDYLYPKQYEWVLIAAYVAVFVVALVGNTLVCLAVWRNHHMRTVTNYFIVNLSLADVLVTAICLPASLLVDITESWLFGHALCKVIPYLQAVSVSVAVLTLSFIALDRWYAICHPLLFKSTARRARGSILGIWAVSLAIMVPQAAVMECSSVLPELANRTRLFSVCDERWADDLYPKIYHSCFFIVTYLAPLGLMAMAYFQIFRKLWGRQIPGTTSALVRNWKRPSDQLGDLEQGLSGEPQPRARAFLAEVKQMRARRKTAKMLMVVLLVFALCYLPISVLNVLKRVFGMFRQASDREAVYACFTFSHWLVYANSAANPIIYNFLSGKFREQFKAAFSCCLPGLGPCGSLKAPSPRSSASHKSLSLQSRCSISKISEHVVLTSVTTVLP

For `COc1ccc(OCCNc2cc(N3CCOCC3)ccc2[N+](=O)[O-])cc1`, the EC50 (Insulin-degrading enzyme [1]) was > 54.7 µM (inactive), the EC50 (HEK293 [2]) was > 56 µM (inactive) and the EC50 (Insulin-degrading enzyme [3]) was > 54.7 µM (inactive). For the same compound, the IC50 (HEK293 [4]) was > 89.3 µM (inactive) and the IC50 [5] was 13.8 µM (not active).
In the case of `COc1cccc(/C=C2/Oc3ccccc3N(CC(=O)NCC3CCCO3)C2=O)c1` (centres undefined), the IC50 [6] is reported as > 49.7 µM (inactive), the IC50 (CHO-K1) is reported as > 66.2 µM (inactive) and the IC50 [7] is reported as 0.254 µM (active). For the same compound, the IC50 [8] was 0.426 µM (active), the IC50 (Orexin receptor type 2 [9]) was 0.96 µM (active) and the IC50 (Orexin receptor type 2 [10]) was 3.82 µM (active).
For `COc1ccc(-n2c(SCc3ccc([N+](=O)[O-])cc3)nnc2-c2ccc(C)cc2)cc1`, the AC50 (CAAX prenyl protease 2) was 5.39 µM (active), the EC50 [11] was > 60 µM (inconclusive) and the EC50 [12] was 1.35 µM (active). The EC50 [13] was > 260 µM (inactive).
With `O=C(Nc1ccncc1)c1ccc2c(c1)OCO2` the IC50 [14] was 33.8 µM (active), the IC50 [15] was > 99 µM (inactive) and the IC50 (Caspase-3) was 14.4 µM (active). The IC50 [16] was > 99 µM (inactive).
